According to patent publication US10202347B2, “Compound, production method therefor, and use of said compound” (MICROBIAL CHEMISTRY RESEARCH FOUNDATION, priority 2013, dated 2019):

Columns and labels:
[1] = tested on: human stomach cancer cells MKN-74 and normal stromal cells derived from the human stomach, Hs738; assay: Anti-cancer activity in vivo, Test Example 2-2: MKN-74 and stromal cells Hs738, subcutaneous tumor in nude mice; parameters: species or system BALB/c nu/nu nude mice; settings: tumor transplanted together with stromal cells Hs738, intravenous administration at 12.5 mg/kg, FIGS. 1C, 1D
Method: A test was performed in the same manner as in Test Example 2-1 except that the use of the human stomach cancer cells MKN-74 alone in Test Example 2-1 was changed to use of the human stomach cancer cells MKN-74 and the normal stromal cells derived from the human stomach, Hs738.
Note that, a cell liquid and inoculation of the cell liquid to mice were as follows.
Cultured human stomach cancer cells MKN-74 and normal stromal cells derived from the human stomach, Hs738 were respectively trypsinized to be peeled off from the culture dishes. The above human stomach cancer cells MKN-74 (8×10^6 cells) and the above normal stromal cells derived from the human stomach, Hs738 (8×10^6 cells) were dispersed in 0.3 mL DMEM containing 10% FBS and mixed with 0.5 mL growth factor-reduced Matrigel (product of BD Biosciences Co.).
The above mixed cell liquid (0.1 mL) (a mixture of cancer cells: 1×10^6 cells, and stromal cells: 1×10^6 cells) was subcutaneously inoculated to the left groin region of the above mice.

[2] = tested on: human stomach cancer cells MKN-74; assay: Anti-cancer activity in vivo, Test Example 2-1: MKN-74 alone, subcutaneous tumor in nude mice; parameters: species or system BALB/c nu/nu nude mice; settings: intravenous administration at 12.5 mg/kg, FIGS. 1A, 1B
Method: BALB/c nu/nu nude mice (female, 5 weeks old, product of Charles River Co.) were bred under the SPF conditions.
Cultured human stomach cancer cells MKN-74 were trypsinized, and the human stomach cancer cells MKN-74 (8×10^6 cells) peeled off from the culture dish were dispersed in 0.3 mL DMEM containing 10% FBS and mixed with 0.5 mL growth factor-reduced Matrigel (product of BD Biosciences Co.).
The above mixed cell liquid (0.1 mL) (cancer cells: 1×10^6 cells) was subcutaneously inoculated to the left groin region of the above mice.
The compound expressed by the Structural Formula (2) or the compound expressed by the Structural Formula (13) was intravenously administered for a predetermined period, and tumor formed under the skin was cut out and measured for weight. Note that, the administration dose of the compound expressed by the Structural Formula (2) or the compound expressed by the Structural Formula (13) was 12.5 mg/kg per administration day.
Also, a tumor volume was calculated from the following formula referring to the above NPL 1. Tumor volume (mm^3)=(major axis×minor axis^2)/2
Note that, as controls, those to which physiological saline (vehicle) was administered instead of the compound expressed by the Structural Formula (2) or the compound expressed by the Structural Formula (13) were tested in the same manner.

Compound	tumor suppression (tumor volume, tumor weight Day 21) [1]	tumor suppression (tumor volume, tumor weight Day 21) [2]
CCCCCCCc1c(C)c(=O)c2ccccc2n1CN=C(SC)SC [Structural Formula (13)]	significant suppression	
CCCCCCCCc1nc2ccccc2c(OCC(=O)O)c1C [Structural Formula (2)]		significant suppression
